Where “and” joins values, the source holds several entries; their conditions need not be identical. Identical values can stand only once. Like-named read-outs stand apart in the source and are kept apart here.
Tests used:
[1] = biological target: human acetylcholinesterase (AChE) (Homo sapiens, UniProt P22303); assay: biochemical; details: for IC50: human recombinant AChE, pH 8.0, mean ± SD (n = 3), read-out: IC50 hAChE
Protocol: (§3) The ChE inhibition assay was carried out using the Ellman’s spectrophotometric method [23], as applied to the 96-well plate technique [24] on a Tecan Infinite M1000 Pro instrument (Cernusco s.N., Italy).

[2] = tested on: HCT116 (intestinal carcinoma) cells; assay: Cytotoxicity, MTT assay, HCT116 cells; format: cell-based; details: Homo sapiens, HCT-116, read-out: IC50, 50% inhibition of the cell population growth, 72 h, mean ± SD
Protocol: (§1) The cytotoxicity of the newly synthesized Schiff bases was evaluated in vitro in a panel of cultured tumor cells, assessing cell viability at scalar concentrations of the test compounds (≤500 μM) by MTT (i.e., 3-(4,5-dimethylthiazol-2-yl)-2,5-diphenyltetrazolium bromide) and Alamar Blue assays, using doxorubicin as the positive controls. Most of the compounds were tested against RD (rhabdomyosarcoma), HCT116 (intestinal carcinoma), HeLa (adenocarcinoma of the cervix uterus) and A549 (lung adenocarcinoma) cell lines, whereas five representative compounds of the subsets were tested also against K562 (chronic myelogenous leukemia) tumor cells.
(§2) The experiments were carried out in triplicate.

human MAO B = biological target: T1, human MAO B (Homo sapiens, UniProt P27338); assay: biochemical; details: for inhibition at 10 µM: mean ± SD (n = 3), read-out: % inhibition hMAO B
T1 construct: host or cells: baculovirus-infected insect cells (microsomes)
T1 sequence (P27338 1-520): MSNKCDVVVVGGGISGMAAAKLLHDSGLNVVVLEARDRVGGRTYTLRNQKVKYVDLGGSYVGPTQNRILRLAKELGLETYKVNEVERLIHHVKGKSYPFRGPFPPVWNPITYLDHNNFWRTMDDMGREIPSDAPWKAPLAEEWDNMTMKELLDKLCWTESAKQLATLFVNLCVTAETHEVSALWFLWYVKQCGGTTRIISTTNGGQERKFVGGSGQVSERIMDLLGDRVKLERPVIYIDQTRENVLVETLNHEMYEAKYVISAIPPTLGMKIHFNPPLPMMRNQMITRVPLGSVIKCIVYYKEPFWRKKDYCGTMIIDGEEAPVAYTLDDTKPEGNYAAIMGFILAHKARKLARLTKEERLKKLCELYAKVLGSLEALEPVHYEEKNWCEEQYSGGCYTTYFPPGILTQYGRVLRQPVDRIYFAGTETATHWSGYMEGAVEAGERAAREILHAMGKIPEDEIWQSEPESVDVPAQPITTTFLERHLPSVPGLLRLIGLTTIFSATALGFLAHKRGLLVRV
Protocol: (§4) The inhibition of human recombinant MAO A (250 U/mg) and B (59 U/mg; microsomes from baculovirus-infected insect cells) was evaluated using the reported 96-well plate technique [12]. on a Tecan Infinite M1000 Pro instrument (Cernusco s.N., Italy). […] After addition of the enzyme and 30 min of incubation, NaOH was added and the fluorescence read at the 310/400 excitation/emission wavelength.

human MAO A = biological target: T2, human MAO A (Homo sapiens, UniProt P21397); assay: biochemical; details: for inhibition at 10 µM: read-out: % inhibition hMAO A
T2 construct: host or cells: baculovirus-infected insect cells (microsomes)
T2 sequence (P21397 1-527): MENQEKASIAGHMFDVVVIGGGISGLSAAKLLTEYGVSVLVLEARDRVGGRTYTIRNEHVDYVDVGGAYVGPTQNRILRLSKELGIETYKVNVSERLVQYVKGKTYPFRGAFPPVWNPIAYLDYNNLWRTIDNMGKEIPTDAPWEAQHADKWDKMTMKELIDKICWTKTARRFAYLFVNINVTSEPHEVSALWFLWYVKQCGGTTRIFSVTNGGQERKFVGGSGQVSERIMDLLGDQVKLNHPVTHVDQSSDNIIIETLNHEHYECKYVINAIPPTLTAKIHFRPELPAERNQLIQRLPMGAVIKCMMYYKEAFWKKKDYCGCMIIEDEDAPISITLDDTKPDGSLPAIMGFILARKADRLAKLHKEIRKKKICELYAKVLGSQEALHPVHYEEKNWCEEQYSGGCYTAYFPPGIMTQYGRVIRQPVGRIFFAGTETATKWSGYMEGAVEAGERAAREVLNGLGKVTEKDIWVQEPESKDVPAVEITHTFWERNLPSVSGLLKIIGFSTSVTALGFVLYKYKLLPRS
Protocol: as §4

[3] = tested on: RD (rhabdomyosarcoma) cells; assay: Cytotoxicity, MTT assay, RD cells; format: cell-based; details: Homo sapiens, read-out: IC50, 50% inhibition of the cell population growth, 72 h, mean ± SD
Protocol: as §1, §2

[4] = biological target: T3, human butyrylcholinesterase (BChE) (Homo sapiens, UniProt P06276); assay: BChE inhibition, Ellman's method; format: biochemical; details: mean ± SD (n = 3), n.i. = no inhibition; for inhibition at 10 µM: read-out: % inhibition hBChE
T3 construct: BChE from human serum (50 U/mg); from tissue; host or cells: human serum
T3 sequence (P06276 29-602): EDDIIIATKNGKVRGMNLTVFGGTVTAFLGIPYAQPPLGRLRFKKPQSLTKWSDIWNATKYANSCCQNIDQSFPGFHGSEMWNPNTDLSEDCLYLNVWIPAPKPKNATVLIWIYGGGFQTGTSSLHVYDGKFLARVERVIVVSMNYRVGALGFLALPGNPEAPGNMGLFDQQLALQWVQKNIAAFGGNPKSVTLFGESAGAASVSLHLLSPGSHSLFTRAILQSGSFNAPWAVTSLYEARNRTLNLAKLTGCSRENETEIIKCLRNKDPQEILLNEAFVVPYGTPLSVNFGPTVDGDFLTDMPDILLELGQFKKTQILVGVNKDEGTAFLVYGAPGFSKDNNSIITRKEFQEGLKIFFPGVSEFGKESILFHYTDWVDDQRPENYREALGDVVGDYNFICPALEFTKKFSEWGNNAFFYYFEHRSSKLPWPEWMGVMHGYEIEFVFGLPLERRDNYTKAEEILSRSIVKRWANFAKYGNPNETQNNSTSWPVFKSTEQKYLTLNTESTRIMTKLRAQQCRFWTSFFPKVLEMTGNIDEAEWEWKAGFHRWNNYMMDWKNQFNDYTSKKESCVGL
Protocol: as §3

[5] = biological target: T4, β-amyloid (Aβ)1–40 self-aggregation (Homo sapiens, UniProt P05067); assay: Inhibition of self-induced Aβ40 aggregation, thioflavin T fluorescence; format: biochemical; details: Aβ40 30 μM, 2% HFIP, ThT, mean ± SD (n = 3); for IC50: PBS pH 7.4, 2 h
T4 construct: self-aggregation of Aβ peptides 1–40 (Aβ40)
T4 sequence (P05067 672-711 limits assumed): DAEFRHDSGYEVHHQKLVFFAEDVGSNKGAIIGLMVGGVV
Protocol: Molecules able to inhibit simultaneously AChE and β-amyloid (Aβ) aggregation/neurotoxicity may have potential as drugs for the treatment of AD [14]. Herein, the new DHPPIQ derivatives were evaluated for the inhibitory effects on the self-aggregation of Aβ peptides 1–40 (Aβ40), through a test based on the measurement of thioflavin T (ThT) fluorescence. Quercetin, which is a strong inhibitor of in vitro Aβ self-aggregation, was used as a positive control.
Each compound was initially tested at a 100-μM concentration. […] […].
According to an already reported 96-well plate procedure, the test compounds at 100 μM were incubated with Aβ40 (30 μM) and 2% HFIP (1,1,1,3,3,3-hexafluoro-2-propanol), used as aggregation enhancer in PBS pH 7.4 for 2 h at room temperature. After the addition of ThT, the fluorescence was read at the 440/485 nm excitation/emission wavelength. Experiments were performed in triplicate, and the % inhibition values calculated as mean ± SD.

[6] = tested on: K562 (chronic myelogenous leukemia) cells; assay: Cytotoxicity, Alamar Blue (resazurin) assay, K562 cells; format: cell-based; details: Homo sapiens, read-out: IC50, 50% inhibition of the cell population growth, 72 h, mean ± SD
Protocol: as §1, §2

in vitro = details: human
[7] = tested on: HeLa (adenocarcinoma of the cervix uterus) cells; assay: Cytotoxicity, MTT assay, HeLa cells; format: cell-based; details: Homo sapiens, read-out: IC50, 50% inhibition of the cell population growth, 72 h, mean ± SD
Protocol: as §1, §2

[8] = tested on: A549 (lung adenocarcinoma) cells; assay: Cytotoxicity, MTT assay, A549 cells; format: cell-based; details: Homo sapiens, read-out: IC50, 50% inhibition of the cell population growth, 72 h, mean ± SD
Protocol: as §1, §2

[9] = tested on: HCT116 (intestinal carcinoma) cells; set-up: method as in doi:10.1055/s-0036-1588486; details: read-out: IC50, 50% inhibition of the cell population growth, HCT116, data taken from ref [3]; cited from earlier work
[10] = tested on: A549 (lung adenocarcinoma) cells; set-up: method as in doi:10.1055/s-0036-1588486; details: read-out: IC50, 50% inhibition of the cell population growth, A549, data taken from ref [3]; cited from earlier work
[11] = tested on: RD (rhabdomyosarcoma) cells; set-up: method as in doi:10.1055/s-0036-1588486; details: read-out: IC50, 50% inhibition of the cell population growth, RD, data taken from ref [3]; cited from earlier work
[12] = tested on: HeLa (adenocarcinoma of the cervix uterus) cells; set-up: method as in doi:10.1055/s-0036-1588486; details: read-out: IC50, 50% inhibition of the cell population growth, HeLa, data taken from ref [3]; cited from earlier work

Sequence of human acetylcholinesterase (AChE) (P22303 32-614): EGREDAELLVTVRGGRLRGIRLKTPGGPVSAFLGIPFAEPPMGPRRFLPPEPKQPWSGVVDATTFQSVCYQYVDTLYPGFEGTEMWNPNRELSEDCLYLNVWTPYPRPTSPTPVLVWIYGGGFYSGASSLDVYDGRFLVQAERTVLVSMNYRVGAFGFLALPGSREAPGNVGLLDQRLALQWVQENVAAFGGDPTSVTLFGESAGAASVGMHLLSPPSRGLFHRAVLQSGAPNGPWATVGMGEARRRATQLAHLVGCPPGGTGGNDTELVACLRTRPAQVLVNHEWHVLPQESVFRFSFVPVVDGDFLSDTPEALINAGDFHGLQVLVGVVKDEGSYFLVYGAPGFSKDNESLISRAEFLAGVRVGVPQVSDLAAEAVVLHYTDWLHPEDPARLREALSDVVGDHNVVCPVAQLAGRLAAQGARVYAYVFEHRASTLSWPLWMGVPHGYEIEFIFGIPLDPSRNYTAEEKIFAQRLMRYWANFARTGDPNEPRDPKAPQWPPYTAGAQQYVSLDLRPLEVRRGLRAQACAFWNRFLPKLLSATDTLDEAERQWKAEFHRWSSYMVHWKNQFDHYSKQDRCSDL

CCOc1ccc(-c2c(CN(C)CCNC)cn3c2-c2cc(OCC)c(OCC)cc2CC3)cc1OCC.O=C(O)/C=C/C(=O)O [Compound 17a, 2-(([1-(3,4-diethoxyphenyl]-8,9-diethoxy-5,6-dihydropyrrolo[2,1-a]isoquinolin-2-yl)methyl)(methyl)amino)-N-methylethan-1-aminium (E)-3-carboxyacrylate]
inhibition mechanism on hAChE ([1]; Michaelis-Menten / Lineweaver-Burk plots): noncompetitive/mixed-type inhibition mechanism
Ki ([1]; complete kinetics, human AChE, read-out: inhibition constant (Ki) hAChE): 13.6 ± 0.1 µM
IC50 [1]: 16 µM and 16.4 µM
IC50 [2]: 18.6 ± 0.4 µM
IC50 (human MAO B): 14.3 ± 1.4 µM
inhibition at 10 µM (human MAO A): 38 ± 5%
IC50 [3]: 10.1 ± 0.1 µM
% inhibition hBChE ([4]; at 10 μM): n.i.
inhibition at 100 µM ([5]; at 100 μM): 31 ± 3%
IC50 [6]: 46.6 ± 1.5 µM
IC50 at 72 h (in vitro; SH-SY5Y neuroblastoma cells): 17.9 ± 0.1 µM
IC50 [7]: 29.7 ± 0.9 µM
IC50 [8]: 35.9 ± 2.4 µM

CCOc1ccc(-c2c(C=O)c(-c3ccccc3)n3c2-c2cc(OCC)c(OCC)cc2CC3)cc1OCC [Compound 2]
IC50 [9]: 183 ± 0.1 µM
IC50 [10]: 229 ± 21 µM
IC50 [11]: 365 ± 23 µM

COc1ccc(/N=C/c2cn3c(c2-c2ccc(Cl)cc2)-c2cc(OC)c(OC)cc2CC3)cc1 [Compound 9, (E)-1-(1-(4-chlorophenyl)-8,9-dimethoxy-5,6-dihydropyrrolo[2,1-a]isoquinolin-2-yl)-N-(4-methoxyphenyl)methanimine]
IC50 [1]: 29.3 ± 2.3 µM
IC50 [2]: 37.2 ± 2.4 µM
inhibition at 10 µM (human MAO B): 29 ± 5%
inhibition at 10 µM (human MAO A; at 10 μM, mean ± SD (n = 3)): 39 ± 2%
IC50 [3]: 76.4 ± 4.7 µM
inhibition at 10 µM [4]: 13 ± 4%
IC50 [5]: 46 ± 5 µM
IC50 [6]: 105 ± 8 µM
IC50 at 72 h (in vitro; SH-SY5Y neuroblastoma cells): 22.1 ± 0.8 µM
IC50 [7]: 35.2 ± 0.7 µM
IC50 [8]: 99.4 ± 1.1 µM

CCOc1ccc(-c2c(C=O)cn3c2-c2cc(OCC)c(OCC)cc2CC3)cc1OCC [Compound 1]
IC50 [9]: 11.8 ± 0.1 µM
IC50 [12]: 44.5 ± 2 µM
IC50 [10]: 19.7 ± 0.3 µM
IC50 [11]: 21.3 ± 1.2 µM

CCOc1ccc(-c2c(/C=N/N=C/c3cn4c(c3-c3ccc(OCC)c(OCC)c3)-c3cc(OCC)c(OCC)cc3CC4)cn3c2-c2cc(OCC)c(OCC)cc2CC3)cc1OCC [Compound 18, (1E,2E)-1,2-bis((1-[3,4-diethoxyphenyl]-8,9-diethoxy-5,6-dihydropyrrolo[2,1-a]isoquinolin-2-yl)methylene)hydrazine]
melting point: 230 to 232 °C
IC50 [2]: > 500 µM
IC50 [7]: 302 ± 23 µM

COc1ccc(/N=C/c2c(-c3ccc(F)cc3)c3n(c2-c2ccccc2)CCc2cc(OC)c(OC)cc2-3)cc1 [Compound 12, (E)-1-(1-(4-fluorophenyl)-8,9-dimethoxy-3-phenyl-5,6-dihydropyrrolo[2,1-a]isoquinolin-2-yl)-N-(4-methoxyphenyl)methanimine]
melting point: 195 to 197 °C
IC50 [2]: 148 ± 14 µM
IC50 [3]: > 500 µM
IC50 [7]: 450 ± 19 µM
IC50 [8]: > 500 µM

CCOc1ccc(-c2c(/C=N/c3ccc(OC)cc3)c(-c3ccccc3)n3c2-c2cc(OCC)c(OCC)cc2CC3)cc1OCC [Compound 8, (E)-1-(1-(3,4-diethoxyphenyl)-8,9-diethoxy-3-phenyl-5,6-dihydropyrrolo[2,1-a]isoquinolin-2-yl)-N-(4-methoxyphenyl)methanimine]
melting point: 93 to 95 °C
IC50 [2]: 286 ± 5 µM
IC50 [3]: 412 ± 20 µM
IC50 [7]: 304 ± 10 µM

CCOc1ccc(-c2c(/C=N/c3ccc(/N=C/c4cn5c(c4-c4ccc(OCC)c(OCC)c4)-c4cc(OCC)c(OCC)cc4CC5)cc3)cn3c2-c2cc(OCC)c(OCC)cc2CC3)cc1OCC [Compound 13a, (1E,1’E)-N,N’-(1,4-phenylene)bis(1-(1-[3,4-diethoxyphenyl]-8,9-diethoxy-5,6-dihydropyrrolo[2,1-a]isoquinolin-2-yl)methanimine)-1,4-diaminium dichloride]
IC50 [1]: 13 µM and 13.1 µM
IC50 [2]: 103 ± 8 µM
inhibition at 10 µM (human MAO B): 31 ± 3%
IC50 (human MAO A; human recombinant MAO A, kynuramine, mean ± SD (n = 3), read-out: IC50 hMAO A): 12.3 ± 1.1 µM
IC50 [3]: 390 ± 19 µM
inhibition at 10 µM [4]: 11 ± 3%
IC50 [5]: 42 ± 3 µM
IC50 at 72 h (in vitro): 101 ± 6 µM
IC50 [7]: 205 ± 10 µM
IC50 [8]: 240 ± 18 µM

Source: PMC7827648 (Molecules, 2021)
